Laboratory results as given in publication PMC10847070, “State-independent inhibition of the oncogenic Kv10.1 channel by desethylamiodarone, a comparison with amiodarone” (Pflugers Archiv, 2023).

Target: T1, Kv10.1 (Eag1) (Homo sapiens, UniProt O95259)
T1 construct: gene KCNH1
T1 sequence (O95259 1-989): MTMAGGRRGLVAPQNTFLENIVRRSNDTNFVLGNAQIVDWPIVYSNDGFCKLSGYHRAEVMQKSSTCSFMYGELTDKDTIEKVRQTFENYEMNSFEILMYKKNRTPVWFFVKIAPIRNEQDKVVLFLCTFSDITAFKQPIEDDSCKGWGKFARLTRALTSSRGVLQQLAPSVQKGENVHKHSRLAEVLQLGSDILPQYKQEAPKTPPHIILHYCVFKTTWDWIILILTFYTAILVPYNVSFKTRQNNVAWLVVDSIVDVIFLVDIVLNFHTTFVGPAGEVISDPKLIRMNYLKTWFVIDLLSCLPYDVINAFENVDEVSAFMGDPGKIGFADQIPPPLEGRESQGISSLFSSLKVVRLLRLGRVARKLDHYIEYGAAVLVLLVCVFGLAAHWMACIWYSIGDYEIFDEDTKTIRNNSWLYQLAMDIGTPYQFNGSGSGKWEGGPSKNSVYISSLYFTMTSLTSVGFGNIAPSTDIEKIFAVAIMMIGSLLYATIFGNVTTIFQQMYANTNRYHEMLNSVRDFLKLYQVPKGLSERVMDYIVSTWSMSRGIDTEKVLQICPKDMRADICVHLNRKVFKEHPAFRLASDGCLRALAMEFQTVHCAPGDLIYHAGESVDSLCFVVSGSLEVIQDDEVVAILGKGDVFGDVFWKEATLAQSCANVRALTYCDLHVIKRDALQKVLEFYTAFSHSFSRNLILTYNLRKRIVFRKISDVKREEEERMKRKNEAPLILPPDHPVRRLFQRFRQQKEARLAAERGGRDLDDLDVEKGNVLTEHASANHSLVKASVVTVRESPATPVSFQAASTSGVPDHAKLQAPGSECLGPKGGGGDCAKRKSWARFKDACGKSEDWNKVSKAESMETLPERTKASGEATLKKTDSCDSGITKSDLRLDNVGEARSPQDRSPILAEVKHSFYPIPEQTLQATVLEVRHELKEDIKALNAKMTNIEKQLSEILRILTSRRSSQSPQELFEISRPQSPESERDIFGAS
Experiment: patch-clamp electrophysiology of HEK293 cells stably expressing Kv10.[…]; dose-response at +[…] mV
Type: cell-based

**Q.** For `CCCCc1oc2ccccc2c1C(=O)c1cc(I)c(OCCNCC)c(I)c1` [desAd, desethylamiodarone], which Kd is on record?
**A.** 1200 nM
